In article PMC6764212 (ACS Central Science, 2019):
Where two headings read alike, the source gives them in different places.

Columns and labels:
GABAAR(α1/β3/γ2) [1] = target: T1, GABAAR(α1/β3/γ2) (Homo sapiens, UniProt P14867+P18507+P28472); type: binding
GABAAR(α1/β3/γ2) [2] = target: T1, GABAAR(α1/β3/γ2); test: Ligand detection / high-throughput screening by fluorescence change ratio; type: binding; conditions: for assignment of hit compound from the screening: third and fourth screening, LOPAC1280, 10 μM
GABAARs = conditions: cited from earlier work
GABAAR(α1/β3/γ2) [3] = target: T1, GABAAR(α1/β3/γ2); test: Dissociation constant of PAM at fixed 10 μM GABA; type: binding
GABAAR(α1/β3/γ2) [4] = target: T1, GABAAR(α1/β3/γ2); test: Whole-cell patch-clamp electrophysiology in GABAAR-transfected HEK293T cells; type: cell-based; conditions: for chloride currents in the absence of GABA at high concentrations: 100 μM for CGP-7930 and CGP-13501, 25 μM for vinpocetine, Retro-2 and YC-1

Row | Molecule | fluorescence change (ΔF/F0) upon ligand addition in the absence of GABA (GABAAR(α1/β3/γ2) [2]) | fluorescence change (ΔF/F0) upon ligand addition in the presence of GABA (GABAAR(α1/β3/γ2) [2]) | assignment of hit compound from the screening (GABAAR(α1/β3/γ2) [2]) | Kd (GABAAR(α1/β3/γ2) [3]) [µM] | other results
1 | COc1ccc(-c2ccc(=N)n(CCCC(=O)O)n2)cc1 [gabazine] | significant decrease | significant decrease | potential orthosteric ligands | – | Kd (GABAAR(α1/β3/γ2) [1]): 0.214 µM; concentration at which the fluorescence decrease reached saturation (GABAAR(α1/β3/γ2) [1]; 100 nM Gzn-OG, CLSM image): approximately 10 μM
2 | CC(C)c1cccc(C(C)C)c1O [propofol] | negligible fluorescence change | pronounced fluorescent decrease | – | 5.6 | Kd (GABAARs; read-out: Kd of propofol previously reported using live cells): 1.9 µM
3 | COc1ccc2c(c1OC)C(=O)O[C@@H]2[C@H]1c2cc3c(cc2CCN1C)OCO3 [hydrastine] | – | – | potential orthosteric ligands | – | –
4 | CCOC(=O)C1=C[C@]2(CC)CCCN3CCc4c(n1c1ccccc41)[C@@H]32 [vinpocetine] | – | – | PAM candidates | 1.4 | chloride currents in the absence of GABA at high concentrations (GABAAR(α1/β3/γ2) [4]; no GABA): increased the chloride currents; effect on GABA-induced chloride currents (GABAAR(α1/β3/γ2) [4]; [compound] = 3 μM, [GABA] = 30 μM, −60 mV): reversibly enhanced; direct activation of GABAARs at low concentrations (GABAAR(α1/β3/γ2) [4]; low concentrations (3 μM), no GABA): did not induce any direct activation of GABAARs
5 | CCOC(=O)c1cncn1[C@H](C)c1ccccc1 [etomidate] | negligible fluorescence change | pronounced fluorescent decrease | – | – | Kd (GABAARs; read-out: Kd of etomidate previously reported using live cells): 1.8 µM
6 | Cc1ccc(-c2nc3ccc(C)cn3c2CC(=O)N(C)C)cc1 [zolpidem] | negligible fluorescence change | pronounced fluorescent decrease | – | – | –
7 | picrotoxin | no effect on the fluorescence intensity | no effect on the fluorescence intensity | – | – | –
8 | CC1=C(C)C(=O)C(CCCCC#CCCCC#CCO)=C(C)C1=O [AA-861] | – | – | PAM candidates | – | –
9 | CC(C)(CO)Cc1cc(C(C)(C)C)c(O)c(C(C)(C)C)c1 [CGP-7930, 2,6-Di-tert-butyl-4-(3-hydroxy-2,2-dimethyl-propyl)-phenol] | – | – | PAM candidates | 13.1 | chloride currents in the absence of GABA at high concentrations (GABAAR(α1/β3/γ2) [4]; no GABA): increased the chloride currents
